{
  "source": "patent US11161826B2",
  "about": "“Manufacturing methods and polymorphs of a thiazoline anti-hyperalgesic agent” (ACADIA PHARMACEUTICALS INC., priority 2019, dated 2021)",
  "type_in_all_cases": "physicochemical",
  "key": {"[1]": {"assay": "Thermogravimetric Analysis (TGA) decomposition", "source_text": "The combined DSC/TGA results for (R)-2-(2-hydroxyphenylamino)-5,5-dimethyl-4,5-dihydrothiazole-4-carboxylic acid mono-hydrochloride is provided in FIG. 7. […] An amorphous form of Compound 1 can be made by, for example, lyophilizing crystalline Compound 1 as described in Example 4 herein."}, "[2]": {"assay": "Solubility in organic/aqueous solvents"}, "[3]": {"assay": "Gravimetric Vapor Sorption (GVS)", "source_text": "The sample is hygroscopic."}},
  "note": "Structures can show the parent of a compound that is named as a salt.",
  "data": [
    {"smiles": "CC1(C)SC(Nc2ccccc2O)=N[C@@H]1C(=O)O", "note": "[Compound 1, (R)-2-(2-hydroxyphenylamino)-5,5-dimethyl-4,5-dihydrothiazole-4-carboxylic acid mono-hydrochloride]", "values": [
      {"measurement": "TGA start of decomposition (total 5% mass loss)", "setting": "[1]", "result": "~202", "unit": "°C"},
      {"measurement": "solubility", "setting": "[2]; 10% water/tetrahydrofuran", "result": "sparingly soluble"},
      {"measurement": "solubility", "setting": "[2]; 10% water:iso-propyl acetate", "result": "sparingly soluble"},
      {"measurement": "solubility", "setting": "[2]; acetone", "result": "less than sparingly soluble"},
      {"measurement": "solubility", "setting": "[2]; ethanol", "result": "sparingly soluble"},
      {"measurement": "solubility", "setting": "[2]; ethyl acetate", "result": "less than sparingly soluble"},
      {"measurement": "solubility", "setting": "[2]; iso-propanol", "result": "sparingly soluble"},
      {"measurement": "solubility", "setting": "[2]; iso-propyl acetate", "result": "less than sparingly soluble"},
      {"measurement": "solubility", "setting": "[2]; methanol", "result": "freely soluble"},
      {"measurement": "solubility", "setting": "[2]; n-heptane", "result": "less than sparingly soluble"},
      {"measurement": "solubility", "setting": "[2]; tert-butyl alcohol", "result": "less than sparingly soluble"},
      {"measurement": "solubility", "setting": "[2]; tert-butyl alcohol:water (1:1)", "result": "freely soluble"},
      {"measurement": "solubility", "setting": "[2]; tert-butyl methyl ether", "result": "less than sparingly soluble"},
      {"measurement": "solubility", "setting": "[2]; tetrahydrofuran", "result": "less than sparingly soluble"},
      {"measurement": "solubility", "setting": "[2]; toluene", "result": "less than sparingly soluble"},
      {"measurement": "solubility", "setting": "[2]; water", "result": "sparingly soluble"},
      {"measurement": "hygroscopicity", "setting": "[3]; GVS", "result": "hygroscopic"},
      {"measurement": "GVS uptake", "setting": "[3]; between 0% and 90% RH", "result": 6, "unit": "%"}
    ]}
  ]
}
